According to patent US8088819B2, “Derivatives of substituted 3-phenyl-1-(phenylthienyl)propan-1-ones and of 3-phenyl-1-(phenylfuranyl) propan-1-ones, preparation and use” (priority 2006, dated 2012):

Key:
hPPARalpha = target: T1, hPPARalpha (Homo sapiens, UniProt Q07869); assay: PPAR activation: Gal4-hPPARα chimera luciferase transactivation in COS-7 cells, Method 1; assay type: cell-based; details: COS-7, 24 h; for Emax: maximum percentage response relative to the reference phenofibric acid, read-out: hPPARalpha % max
T1 construct: expressed in transfected cells; host or cells: COS-7 (monkey kidney fibroblasts)
T1 sequence (Q07869 239-466 limits assumed): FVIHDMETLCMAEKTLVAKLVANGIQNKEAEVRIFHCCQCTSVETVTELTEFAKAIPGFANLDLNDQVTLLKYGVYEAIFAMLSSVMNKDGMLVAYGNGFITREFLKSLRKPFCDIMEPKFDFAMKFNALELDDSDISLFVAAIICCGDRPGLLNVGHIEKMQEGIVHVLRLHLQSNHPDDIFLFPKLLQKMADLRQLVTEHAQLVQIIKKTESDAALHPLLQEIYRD
Experimental: (§1) The activation of the PPARs was evaluated in vitro on a line of monkey kidney fibroblasts (COS-7) by measuring the transcriptional activity of chimeras constituted of the DNA binding domain of the Gal4 transcription factor of yeast and the ligand binding domain of the various PPARs. The compounds were tested at doses between 10^−5 and […] on the chimeras Gal4-PPARα, γ or δ, and the corresponding EC50 values were determined.
(§2) The COS-7 cells were obtained from the ATCC and were cultivated in DMEM medium supplemented with 10% (v/v) of fetal calf serum, 100 U/ml of penicillin (Gibco, Paisley, UK) and 2 mM of L-glutamine (Gibco, Paisley, UK). The cells were incubated at 37° C. in a humid atmosphere containing 5% CO2.
(§3) The plasmids Gal4(RE)_TkpGL3, pGal4-hPPARα, pGal4-hPPARγ, pGal4-hPPARδ and pGal4-φ are described in the literature (Raspe E et al., 1999). The constructs pGal4-hPPARα, pGal4-hPPARγ and pGal4-hPPARδ were obtained by cloning DNA fragments amplified by PCR corresponding to the DEF domains of the human nuclear receptors PPARα, PPARγ and PPARδ in the pGal4-φ vector.
(§4) The COS-7 cells in suspension were transfected with 150 ng of DNA per well, with a pGal4-PPAR/Gal4(RE)_TkpGL3 ratio of 1/10, in the presence of 10% fetal calf serum. The cells were seeded in 96-well plates (4×10^4 cells/well) and then incubated at 37° C. for 24 hours. Activation with the test compounds is carried out for 24 h at 37° C. in serum-free medium. At the end of the experiment, the cells were lysed and the luciferase activity was determined using the Steady-Lite™ HTS (Perkin Elmer) following the supplier's recommendations.

hPPARdelta = target: T2, hPPARdelta (Homo sapiens, UniProt Q03181); assay: PPAR activation: Gal4-hPPARδ chimera luciferase transactivation in COS-7 cells, Method 1; assay type: cell-based; details: COS-7, 24 h; for Emax: maximum percentage response relative to the reference GW501516, read-out: hPPARdelta % max
T2 construct: expressed in transfected cells; host or cells: COS-7 (monkey kidney fibroblasts)
T2 sequence (Q03181 211-439 limits assumed): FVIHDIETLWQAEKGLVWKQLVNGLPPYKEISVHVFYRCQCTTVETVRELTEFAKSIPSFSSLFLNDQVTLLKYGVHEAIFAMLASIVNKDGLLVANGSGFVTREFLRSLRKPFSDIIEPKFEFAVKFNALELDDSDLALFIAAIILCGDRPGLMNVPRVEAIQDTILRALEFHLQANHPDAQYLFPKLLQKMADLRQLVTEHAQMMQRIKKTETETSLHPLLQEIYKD
Experimental: as §1, §2, §3, §4

hPPARgamma = target: T3, hPPARgamma (Homo sapiens, UniProt P37231); assay: PPAR activation: Gal4-hPPARγ chimera luciferase transactivation in COS-7 cells, Method 1; assay type: cell-based; details: COS-7, 24 h; for Emax: maximum percentage response relative to the reference rosiglitazone, read-out: hPPARgamma % max
T3 construct: expressed in transfected cells; host or cells: COS-7 (monkey kidney fibroblasts)
T3 sequence (P37231 238-503 limits assumed): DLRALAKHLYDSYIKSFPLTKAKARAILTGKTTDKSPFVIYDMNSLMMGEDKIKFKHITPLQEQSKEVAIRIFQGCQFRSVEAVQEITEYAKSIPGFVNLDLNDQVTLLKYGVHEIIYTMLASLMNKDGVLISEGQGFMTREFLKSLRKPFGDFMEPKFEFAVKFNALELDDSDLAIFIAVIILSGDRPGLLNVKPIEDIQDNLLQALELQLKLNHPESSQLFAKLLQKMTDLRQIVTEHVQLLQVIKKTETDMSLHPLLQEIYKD
Experimental: as §1, §2, §3, §4

| SMILES | EC50 (hPPARalpha) | Emax (hPPARalpha) | EC50 (hPPARdelta) | Emax (hPPARdelta) | Emax (hPPARgamma) | melting point | EC50 (hPPARgamma) |
| --- | --- | --- | --- | --- | --- | --- | --- |
| CC(C)(Oc1ccc(CCC(OCc2ccccc2)c2cc(-c3ccc(C(F)(F)F)cc3)cs2)c(Cl)c1Cl)C(=O)O (centres unmarked) [Compound 61, 2-(4-(3-(benzyloxy)-3-(4-(4-(trifluoromethyl)phenyl)thien-2-yl)propyl)-2,3-dichlorophenoxy)-2-methylpropanoic acid] | 591 nM | 42% | 6 nM | 101% | 78% | 58 to 59 °C | 30 nM |
| CC(C)(CCCOc1ccc(CCC(=O)c2ccc(-c3ccc(C(F)(F)F)cc3)s2)c(Cl)c1Cl)C(=O)O [Compound 13, 5-(2,3-dichloro-4-(3-oxo-3-(5-(4-(trifluoromethyl)phenyl)thien-2-yl)propyl)phenoxy)-2,2-dimethylpentanoic acid] | 977 nM | 20% |  | 1% | 58% | 167 to 169 °C | 490 nM |
| CC(C)(Oc1ccc(CCC(=NO)c2ccc(-c3ccc(C(F)(F)F)cc3)s2)c(Cl)c1Cl)C(=O)O (mixture of isomers) [Compound 49, 2-(2,3-dichloro-4-(3-(hydroxyimino)-3-(5-(4-(trifluoromethyl)-phenyl)thien-2-yl)propyl)phenoxy)-2-methylpropanoic acid] | 43 nM | 46% | 45 nM | 93% | 24% | 135 to 136 °C | 660 nM |
| CC(C)(Oc1ccc(CCC(=O)c2ccc(-c3ccc(C(F)(F)F)cc3)s2)c(Cl)c1)C(=O)O [Compound 21, 2-(3-chloro-4-(3-oxo-3-(5-(4-(trifluoromethyl)phenyl)thien-2-yl)-propyl)phenoxy)-2-methylpropanoic acid] | 17 nM | 50% | 8 nM | 97% | 63% | 104 to 106 °C | 80 nM |
| O=C(O)COc1ccc(CCC(=O)c2ccc(-c3ccc(C(F)(F)F)cc3)s2)c(Cl)c1Cl [Compound 15, 2-(2,3-dichloro-4-(3-oxo-3-(5-(4-(trifluoromethyl)phenyl)thien-2-yl)propyl)phenoxy)acetic acid] | 163 nM | 46% | 253 nM | 88% | 32% | 217 to 219 °C | 5660 nM |
| O=C(CCc1ccc(OC(C(=O)O)c2ccccc2)c(Cl)c1Cl)c1ccc(-c2ccc(C(F)(F)F)cc2)s1 (centres unmarked) [Compound 17, 2-(2,3-dichloro-4-(3-oxo-3-(5-(4-(trifluoromethyl)phenyl)thien-2-yl)propyl)phenoxy)-2-phenylacetic acid] | 228 nM | 5% |  | 0% | 27% | 189 to 191 °C | 190 nM |
| CC(C)(Oc1ccc(CCC(=O)c2ccc(-c3ccc(OC(F)(F)F)cc3)s2)c(Cl)c1Cl)C(=O)O [Compound 44, 2-(2,3-dichloro-4-(3-oxo-3-(5-(4-(trifluoromethoxy)phenyl)thien-2-yl)propyl)phenoxy)-2-methylpropanoic acid] | 16 nM | 54% | 27 nM | 109% | 46% | 135 to 136 °C | 100 nM |

The remaining lines, values ahead:

| EC50 (hPPARalpha) | Emax (hPPARalpha) | EC50 (hPPARdelta) | Emax (hPPARdelta) | Emax (hPPARgamma) | melting point | EC50 (hPPARgamma) | SMILES |
| --- | --- | --- | --- | --- | --- | --- | --- |
| 4 nM | 52% | 109 nM | 79% | 73% | 116 to 117 °C |  | CCC(Oc1ccc(CCC(=O)c2ccc(-c3ccc(C(F)(F)F)cc3)s2)cc1)C(=O)O (centres unmarked) [Compound 65, 2-(4-(3-oxo-3-(5-(4-(trifluoromethyl)phenyl)thien-2-yl)propyl)-phenoxy)butanoic acid] |
| 33 nM | 61% | 292 nM | 90% | 15% | 182 to 183 °C | 3530 nM | O=C(O)COc1ccc(CCC(=O)c2ccc(-c3ccc(C(F)(F)F)cc3)s2)cc1 [Compound 69, 2-(4-(3-oxo-3-(5-(4-(trifluoromethyl)phenyl)thien-2-yl)propyl)-phenoxy)acetic acid] |
| 1 nM | 47% | 15 nM | 85% | 27% | 136 to 137 °C | 180 nM | CC(C)(Oc1ccc(CCC(=O)c2ccc(-c3ccc(C(F)(F)F)cc3)s2)cc1Cl)C(=O)O [Compound 19, 2-(2-chloro-4-(3-oxo-3-(5-(4-(trifluoromethyl)phenyl)thien-2-yl)-propyl)phenoxy)-2-methylpropanoic acid] |
| 5 nM | 47% | 9 nM | 85% | 63% | 102 to 104 °C |  | CC(C)(Oc1ccc(CCC(=O)c2ccc(-c3ccc(C(F)(F)F)cc3)s2)cc1Br)C(=O)O [Compound 36, 2-(2-bromo-4-(3-oxo-3-(5-(4-(trifluoromethyl)phenyl)thien-2-yl)propyl)phenoxy)-2-methylpropanoic acid] |
| 2 nM | 56% | 37 nM | 88% | 65% | 119 to 120 °C | 1270 nM | CCC(Oc1ccc(CCC(=O)c2ccc(-c3ccc(C(F)(F)F)cc3)s2)cc1F)C(=O)O (centres unmarked) [Compound 29, 2-(2-fluoro-4-(3-oxo-3-(5-(4-(trifluoromethyl)phenyl)thien-2-yl)-propyl)phenoxy)butanoic acid] |
|  | 48% | 16 nM | 95% | 49% | 150 to 151 °C | 400 nM | CC(C)(Oc1ccc(CCC(=O)c2ccc(-c3ccc(C(F)(F)F)cc3)s2)cc1F)C(=O)O [Compound 23, 2-(2-fluoro-4-(3-oxo-3-(5-(4-(trifluoromethyl)phenyl)thien-2-yl)propyl)phenoxy)-2-methylpropanoic acid] |
